Source: publication PMC5733478, “A Non-imaging High Throughput Approach to Chemical Library Screening at the Unmodified Adenosine-A3 Receptor in Living Cells” (Frontiers in Pharmacology, 2017)
Structures can show the parent of a compound that is named as a salt.

What follows are compounds tested against T1, human A3AR (Homo sapiens, UniProt P0DMS8) (assay: LOPAC library primary screen: single concentration (10 μM) inhibition of 25 nM CA200645 binding, PHERAstar FS). Conditions: not given.
T1 construct: expressed in transfected cells
T1 sequence (P0DMS8 1-318): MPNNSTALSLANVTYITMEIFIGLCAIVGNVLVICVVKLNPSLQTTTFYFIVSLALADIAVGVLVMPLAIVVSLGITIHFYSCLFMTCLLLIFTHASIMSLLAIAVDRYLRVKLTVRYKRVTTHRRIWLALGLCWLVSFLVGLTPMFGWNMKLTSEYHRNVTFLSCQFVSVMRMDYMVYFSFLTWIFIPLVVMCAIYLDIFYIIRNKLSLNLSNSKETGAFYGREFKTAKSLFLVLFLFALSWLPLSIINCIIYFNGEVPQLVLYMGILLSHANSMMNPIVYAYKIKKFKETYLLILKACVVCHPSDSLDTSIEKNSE

In order of rising “% 25 nM CA200645 binding” value:
1. N#C/C(=C\c1ccc(-c2cc(Cl)ccc2Cl)o1)C(=O)Nc1cccc2ncccc12 [AGK2]  35.8 ± 5.6%
2. COc1ccc2c(c1)c(CC(=O)O)c(C)n2C(=O)c1ccccc1  59.0 ± 9.2%
3. CNC1(C)C2CCC(C2)C1(C)C (stereo not drawn) [Mecamylamine hydrochloride]  65.4 ± 10.0%
4. Brc1c(Br)c(Br)c2n[nH]nc2c1Br [TBB]  67.4 ± 13.4%
5. COc1ccc(C2(O)OC(=O)C(c3ccc4c(c3)OCO4)=C2Cc2cc(OC)c(OC)c(OC)c2)cc1 (stereo not drawn) [PD-156707]  71.9 ± 8.4%
6. 10058-F4  75.9 ± 8.5%
7. CCCCCCCCCCCCCCCCCCOCC(COP(=O)([O-])OCC[N+](C)(C)C)OC (stereo not drawn) [ET-18-OCH3]  80.6 ± 4.5%
8. Cc1ccc([N+](=O)[O-])cc1S(=O)(=O)N(C)C [BRL 50481]  82.8 ± 17.4%
9. Fc1ccc2[nH]c(CN3CCN(c4ccccn4)CC3)cc2c1 [CP-226269]  83.6 ± 17.8%
10. COc1cc(CNC(=O)CCCCCCC(C)C)ccc1O [Dihydrocapsaicin]  86.7 ± 9.6%
11. COc1cc(OC)c(C=C2C(O)=Nc3ccccc32)c(OC)c1 [IC 261]  88.8 ± 5.2%
12. CC(C)[C@@H]1CC[C@@H](C)C[C@@H]1P(=O)(c1ccccc1)c1ccccc1 [DPO-1]  89.1 ± 3.8%
13. CN(C)CCOC(=O)COc1ccc(Cl)cc1 [Centrophenoxine hydrochloride]  90.4 ± 28.8%
14. CN1[C@@H]2CC[C@H]1C[C@@H](OC(c1ccccc1)c1ccccc1N)C2 (stereo partly drawn) [Aminobenztropine]  92.7 ± 5.2%
15. C[C@H]1C[C@H]2[C@@H]3CCC4=CC(=O)C=C[C@]4(C)[C@@]3(Cl)[C@@H](O)C[C@]2(C)[C@@]1(O)C(=O)CO [Beclomethasone]  93.7 ± 1.6%
16. OCC(CO)(CBr)CBr [BBMP]  93.9 ± 9.9%
17. CCn1cnc2c(Nc3cccc(Cl)c3)nc(N[C@@H]3CCCC[C@@H]3N)nc21.Cl [CGP-74514A hydrochloride]  94.1 ± 9.9%
18. O=C1NCN(c2ccccc2)C12CCN(CCCC(c1ccc(F)cc1)c1ccc(F)cc1)CC2 [Fluspirilene]  94.5 ± 10.0%
19. C1CNCCN1.COc1cc(C(O)CO)ccc1O.COc1cc(C(O)CO)ccc1O (stereo not drawn) [MHPG piperazine]  95.1 ± 7.6%
20. c1ccc(C2CN3CCSC3=N2)cc1 (stereo not drawn) [Tetramisole hydrochloride]  95.5 ± 22.8%
21. CC(=O)O[C@]1(C(C)=O)CC[C@H]2[C@@H]3C=C(Cl)C4=CC(=O)[C@@H]5C[C@@H]5[C@]4(C)[C@H]3CC[C@@]21C [Cyproterone acetate]  95.6 ± 2.1%
22. CC(=O)SCC[N+](C)(C)C.[Cl-] [Acetylthiocholine chloride]  95.7 ± 4.8%
23. COC(=O)C(N)Cc1ccc(Cl)cc1.Cl (racemic)  95.7 ± 6.7%
24. CNCC(O)c1ccc(O)c(O)c1.Cl (racemic) [(±)-Epinephrine hydrochloride]  95.7 ± 7.0%
25. N[C@H](C(=O)O)[C@H](Cc1ccccc1)C(=O)O [L-Beta-threo-benzyl-aspartate]  95.9 ± 9.2%
26. COc1ccc(C(=O)N2CCCC2=O)cc1 [Aniracetam]  95.9 ± 3.1%
27. CC(N)=O [Acetamide]  96.1 ± 7.6%
28. Nc1cc(N2CCCCC2)nc(N)[n+]1[O-] [Minoxidil]  96.7 ± 6.2%
29. C[C@H](CS)C(=O)N1CCC[C@H]1C(=O)O [Captopril]  97.2 ± 6.3%
30. C=CCn1c(=O)c2c(nc(-c3ccc(S(=O)(=O)O)cc3)n2C)n(C)c1=O  97.5 ± 9.3%
31. O.O.O=C(Nc1ccc2c(c1)CCN(Cc1ncn[nH]1)C2)c1ccccc1-c1ccc(C(F)(F)F)cc1 [CP-346086 dihydrate]  98.2 ± 12.5%
32. OC[C@H]1OC(n2cnc3ccccc32)[C@H](O)[C@@H]1O (stereo partly drawn) [D-ribofuranosylbenzimidazole]  98.4 ± 15.0%
33. Cc1ccc(O)c(N=Nc2ccccc2)n1 [SIB 1757]  98.5 ± 4.5%
34. C[C@@H](N)[C@H]1CC[C@H](C(=O)Nc2ccncc2)CC1.Cl.Cl [Y-27632 dihydrochloride]  98.6 ± 10.3%
35. Cl.Fc1ccc(C(OCCCc2c[nH]cn2)c2ccc(F)cc2)cc1  99.1 ± 1.1%
36. NC(=O)c1ccccc1 [Benzamide]  99.1 ± 4.7%
37. CN(C)CCCN1c2ccccc2CCc2ccc(Cl)cc21 [Clomipramine hydrochloride]  99.4 ± 3.8%
38. O=C(O)[C@H]1CCCN[C@H]1C(=O)O (racemic) [(±)-cis-Piperidine-2,3-dicarboxylic acid]  99.4 ± 1.9%
39. CCOC(=O)[C@H](CCc1ccccc1)N[C@@H](C)C(=O)N1[C@H](C(=O)O)C[C@H]2CCCC[C@@H]21 [Trandolapril]  99.7 ± 12.5%
40. Cl.Cl.Cn1cnc(CCN)c1 [1-Methylhistamine dihydrochloride]  99.7 ± 10.5%
41. Cl.Clc1ccc(Cn2c(CN3CCCC3)nc3ccccc32)cc1 [Clemizole hydrochloride]  99.7 ± 8.2%
42. COc1ccc(NC=O)c(C(=O)CCNC(C)=O)c1 [AFMK]  100.0 ± 2.7%
43. CC(=O)N[C@@H](CS)C(=O)O [N-Acetyl-L-Cysteine]  100.3 ± 0.2%
44. Cc1c(OCC(F)(F)F)ccnc1C[S+]([O-])c1nc2ccccc2[nH]1 (stereo not drawn) [Lansoprazole]  100.3 ± 13.0%
45. COc1ccccc1OCCNCC(O)COc1cccc2[nH]c3ccccc3c12 (stereo not drawn) [Carvedilol]  100.8 ± 14.2%
46. C=CC[N+](C)(C)c1ccc(CCC(=O)CCc2ccc([N+](C)(C)CC=C)cc2)cc1.[Br-].[Br-] [BW 284c51]  100.9 ± 3.8%
47. CN(C)C(N)=NCCC[C@H](N)C(=O)O.Cl [N^G,N^G-Dimethylarginine hydrochloride]  101.2 ± 10.7%
48. CCCN(CCC)CCc1ccc(O)c(O)c1 [Dipropyldopamine hydrobromide]  101.8 ± 8.0%
49. Br.COc1ccc2c(c1)[C@]13CCCC[C@@H]1[C@H](C2)N(C)CC3.O  102.0 ± 12.4%
50. O=c1ccc2ccc(O)c(O)c2o1 [Daphnetin]  102.0 ± 13.1%
51. CCN1CCCC1CNC(=O)c1cc(S(N)(=O)=O)ccc1OC (racemic) [(±)-Sulpiride]  102.1 ± 6.1%
52. O=C(O)Cc1c[nH]c2ccc(O)cc12 [5-Hydroxyindolacetic acid]  102.3 ± 8.2%
53. N[C@H](C(=O)O)c1cc(O)cc(O)c1 [(S)-3,5-Dihydroxyphenylglycine]  102.7 ± 20.4%
54. CNCCC(Oc1ccc(C(F)(F)F)cc1)c1ccccc1 (stereo not drawn) [Fluoxetine hydrochloride]  102.9 ± 7.1%
55. Cc1ccc(S(=O)(=O)/C=C/C#N)cc1 [Bay 11-7082]  104.6 ± 21.3%
56. CC1(C)CCC=[N+]1[O-] [5,5-Dimethyl-1-pyrroline-N-oxide]  106.0 ± 5.3%
57. Nc1ccn([C@@H]2O[C@H](CO)[C@@H](O)C2(F)F)c(=O)n1 [Gemcitabine hydrochloride]  106.0 ± 4.9%
58. CC[C@]1(O)C[C@H]2CN(CCc3c([nH]c4ccccc34)[C@@](C(=O)OC)(c3cc4c(cc3OC)N(C=O)[C@H]3[C@@](O)(C(=O)OC)[C@H](OC(C)=O)[C@]5(CC)C=CCN6CC[C@]43[C@@H]65)C2)C1 [Vincristine sulfate]  106.1 ± 21.2%
59. Cc1cccc(C)c1N=C1NCCCS1 [Xylazine hydrochloride]  106.3 ± 5.8%
60. Cc1cc(C(C)(C)C)cc(C)c1CC1=NCCN1 [Xylometazoline hydrochloride]  106.7 ± 10.4%
61. NS(=O)(=O)c1cc2c(cc1Cl)N=CNS2(=O)=O [Chlorothiazide]  107.7 ± 8.4%
62. Cl.c1ccc(CN2CCC3(CCCc4ccccc43)CC2)cc1 [L-687,384 hydrochloride]  108.6 ± 4.6%
63. Ro 20-1724  108.8 ± 2.1%
64. NCCCCCC(=O)O [6-Aminohexanoic acid]  109.0 ± 9.6%
65. CN[C@H](CC(=O)O)C(=O)O [N-Methyl-D-aspartic acid]  109.5 ± 4.3%
66. Oc1ccc2c3c1O[C@H]1c4[nH]c5ccccc5c4C[C@@]4(O)[C@@H](C2)N(CC2CC2)CC[C@]314 [Naltrindole hydrochloride]  111.0 ± 9.1%
67. NC(=O)C1=CN([C@@H]2O[C@H](COP(=O)([O-])OP(=O)([O-])OC[C@H]3O[C@@H](n4cnc5c(N)ncnc54)[C@H](OP(=O)([O-])[O-])[C@@H]3O)[C@@H](O)[C@H]2O)C=CC1.[Na+].[Na+].[Na+].[Na+] [NADPH tetrasodium]  112.0 ± 13.1%
68. CC(C)(C)NCC(O)COc1cccc2[nH]c(=O)[nH]c12.Cl (racemic) [(±)-CGP-12177A hydrochloride]  114.1 ± 10.3%
69. C=CCN1CC[C@]23c4c5ccc(O)c4O[C@H]2C(=O)CC[C@@]3(O)[C@H]1C5 [Naloxone hydrochloride]  114.3 ± 14.2%
70. Cn1ccnc1 [1-Methylimidazole]  115.7 ± 16.4%

Same assay, conditions: compounds tested at 10 µM; % of control wells (1% DMSO and 25 nM CA200645); whole live cells expressing the A3AR; mean ± SD, three experiments in duplicate

In order of rising “% 25 nM CA200645 binding” value:
1. Nc1ccc(S(=O)(=O)Nc2ccnn2-c2ccccc2)cc1 [Sulfaphenazole]  89.1 ± 34.9%
2. NC(=O)c1cc(N2CC2)c([N+](=O)[O-])cc1[N+](=O)[O-] [CB 1954]  93.7 ± 2.8%
